Assay: xn = mol fraction of the nth substance listed
Settings: Fluid (supercritical or subcritical phases), vibrating tube

CCCCCO [pentan-1-ol] + O=C=O
Settings	mass density [kg/m3]
362.59 K, 3010 kPa, x2 = 0	762.29
362.59 K, 3998 kPa, x2 = 0	763.28
362.59 K, 5006 kPa, x2 = 0	764.25
362.59 K, 6013 kPa, x2 = 0	765.23
362.59 K, 7014 kPa, x2 = 0	766.21
362.59 K, 8007 kPa, x2 = 0	767.16
362.59 K, 9020 kPa, x2 = 0	768.1
362.59 K, 10006 kPa, x2 = 0	769.02
362.59 K, 10991 kPa, x2 = 0	769.93
362.59 K, 12025 kPa, x2 = 0	770.87
362.59 K, 13008 kPa, x2 = 0	771.76
362.59 K, 13998 kPa, x2 = 0	772.62
362.59 K, 15017 kPa, x2 = 0	773.51
362.59 K, 16000 kPa, x2 = 0	774.37
362.59 K, 17013 kPa, x2 = 0	775.24
362.59 K, 18032 kPa, x2 = 0	776.11
362.59 K, 19003 kPa, x2 = 0	776.9
362.59 K, 20030 kPa, x2 = 0	777.77
362.59 K, 20987 kPa, x2 = 0	778.55
362.59 K, 22033 kPa, x2 = 0	779.4
362.59 K, 23000 kPa, x2 = 0	780.2
362.59 K, 24031 kPa, x2 = 0	781.02
362.59 K, 25026 kPa, x2 = 0	781.82
362.64 K, 10025 kPa, x2 = 0.3624	777.81
362.64 K, 11003 kPa, x2 = 0.3624	779.19
362.64 K, 12003 kPa, x2 = 0.3624	780.55
362.64 K, 12022 kPa, x2 = 0.4651	773.96
362.64 K, 13017 kPa, x2 = 0.3624	781.9
362.64 K, 13060 kPa, x2 = 0.4651	776.14
362.64 K, 14013 kPa, x2 = 0.3624	783.21
362.64 K, 14031 kPa, x2 = 0.4651	778.14
362.64 K, 15047 kPa, x2 = 0.4651	780.2
362.64 K, 15050 kPa, x2 = 0.3624	784.56
362.64 K, 16009 kPa, x2 = 0.3624	785.79
362.64 K, 16038 kPa, x2 = 0.4651	782.15
362.64 K, 17020 kPa, x2 = 0.4651	784.05
362.64 K, 17038 kPa, x2 = 0.3624	787.08
362.64 K, 17996 kPa, x2 = 0.3624	788.26
362.64 K, 18020 kPa, x2 = 0.4651	785.95
362.64 K, 19025 kPa, x2 = 0.3624	789.49
362.64 K, 19043 kPa, x2 = 0.4651	787.85
362.64 K, 20005 kPa, x2 = 0.3624	790.66
362.64 K, 20038 kPa, x2 = 0.4651	789.76
362.64 K, 21006 kPa, x2 = 0.3624	791.85
362.64 K, 21016 kPa, x2 = 0.4651	791.43
362.64 K, 22040 kPa, x2 = 0.3624	793.05
362.64 K, 22046 kPa, x2 = 0.4651	793.2
362.64 K, 22994 kPa, x2 = 0.3624	794.14
362.64 K, 23026 kPa, x2 = 0.4651	794.9
362.64 K, 24043 kPa, x2 = 0.3624	795.34
362.64 K, 24056 kPa, x2 = 0.4651	796.64
362.64 K, 25004 kPa, x2 = 0.3624	796.42
362.66 K, 3020 kPa, x2 = 0.0816	763.81
362.66 K, 3996 kPa, x2 = 0.0816	764.91
362.66 K, 4993 kPa, x2 = 0.0816	765.97
362.66 K, 6014 kPa, x2 = 0.0816	767.08
362.66 K, 7003 kPa, x2 = 0.0816	768.13
362.66 K, 8000 kPa, x2 = 0.0816	769.18
362.66 K, 9015 kPa, x2 = 0.0816	770.22
362.66 K, 10003 kPa, x2 = 0.0816	771.21
362.66 K, 11015 kPa, x2 = 0.0816	772.24
362.66 K, 12001 kPa, x2 = 0.0816	773.21
362.66 K, 13063 kPa, x2 = 0.0816	774.24
362.66 K, 14005 kPa, x2 = 0.0816	775.13
362.66 K, 15014 kPa, x2 = 0.0816	776.09
362.66 K, 16024 kPa, x2 = 0.9216	573.29
362.66 K, 16035 kPa, x2 = 0.0816	777.05
362.66 K, 17029 kPa, x2 = 0.0816	777.98
362.66 K, 17029 kPa, x2 = 0.9216	602.35
362.66 K, 18005 kPa, x2 = 0.0816	778.87
362.66 K, 18035 kPa, x2 = 0.9216	625.49
362.66 K, 19005 kPa, x2 = 0.9216	644.28
362.66 K, 19061 kPa, x2 = 0.0816	779.82
362.66 K, 19993 kPa, x2 = 0.0816	780.66
362.66 K, 20065 kPa, x2 = 0.9216	661.85
362.66 K, 21022 kPa, x2 = 0.0816	781.57
362.66 K, 21055 kPa, x2 = 0.9216	676.21
362.66 K, 22016 kPa, x2 = 0.9216	688.72
362.66 K, 22027 kPa, x2 = 0.0816	782.43
362.66 K, 23003 kPa, x2 = 0.0816	783.28
362.66 K, 23071 kPa, x2 = 0.9216	701.08
362.66 K, 23748 kPa, x2 = 0.9216	708.43
362.66 K, 23994 kPa, x2 = 0.0816	784.14
362.66 K, 25028 kPa, x2 = 0.0816	785.05
362.67 K, 16036 kPa, x2 = 0.7274	743.56
362.67 K, 17030 kPa, x2 = 0.7274	749.82
362.67 K, 18000 kPa, x2 = 0.7274	755.36
362.67 K, 19028 kPa, x2 = 0.7274	760.67
362.67 K, 20033 kPa, x2 = 0.7274	765.6
362.67 K, 21074 kPa, x2 = 0.7274	770.32
362.67 K, 22015 kPa, x2 = 0.7274	774.34
362.67 K, 23077 kPa, x2 = 0.7274	778.68
362.67 K, 24033 kPa, x2 = 0.7274	782.39
362.67 K, 25155 kPa, x2 = 0.7274	786.55
362.76 K, 15032 kPa, x2 = 0.6054	774.3
362.76 K, 16035 kPa, x2 = 0.6054	777.11
362.76 K, 17040 kPa, x2 = 0.6054	779.89
362.76 K, 18044 kPa, x2 = 0.6054	782.5
362.76 K, 19042 kPa, x2 = 0.6054	785.04
362.76 K, 20068 kPa, x2 = 0.6054	787.6
362.76 K, 21079 kPa, x2 = 0.6054	790.03
362.76 K, 22029 kPa, x2 = 0.6054	792.27
362.76 K, 23044 kPa, x2 = 0.6054	794.59
362.76 K, 24071 kPa, x2 = 0.6054	796.88
362.76 K, 25065 kPa, x2 = 0.6054	799.05
362.79 K, 7017 kPa, x2 = 0.1347	768.35
362.79 K, 7974 kPa, x2 = 0.1347	769.41
362.79 K, 9023 kPa, x2 = 0.1347	770.53
362.79 K, 9999 kPa, x2 = 0.1347	771.53
362.79 K, 10899 kPa, x2 = 0.1347	772.5
362.79 K, 12022 kPa, x2 = 0.1347	773.68
362.79 K, 13018 kPa, x2 = 0.1347	774.7
362.79 K, 14016 kPa, x2 = 0.1347	775.72
362.79 K, 15031 kPa, x2 = 0.1347	776.75
362.79 K, 16022 kPa, x2 = 0.1347	777.7
362.79 K, 17016 kPa, x2 = 0.1347	778.71
362.79 K, 18017 kPa, x2 = 0.1347	779.67
362.79 K, 19013 kPa, x2 = 0.1347	780.6
362.79 K, 20017 kPa, x2 = 0.1347	781.57
362.79 K, 21040 kPa, x2 = 0.1347	782.53
362.79 K, 22011 kPa, x2 = 0.1347	783.41
362.79 K, 23022 kPa, x2 = 0.1347	784.34
362.79 K, 24039 kPa, x2 = 0.1347	785.29
362.79 K, 25030 kPa, x2 = 0.1347	786.19

Source: the NIST ThermoML archive (doi:10.1016/j.jct.2007.07.005)
